Paper PMC8457654 (European Journal of Medicinal Chemistry, 2021)
Where a SMILES comes first, the peptide text is derived from it. [ ]: non-standard residue; d: D form. The star is where a group is joined. AllylGly = C=CC[C@H](N)C(=O)O; Boc = CC(C)(C)OC(=O)*; NHBn = c1ccc(CN*)cc1; NHtBu = CC(C)(C)N*; ClAc = O=C(CCl)*

Experiments:
SARS-CoV-2 PL^pro = SARS-CoV-2 PL^pro (Severe acute respiratory syndrome coronavirus 2, UniProt P0DTD1); test: PL^pro enzymatic assay; type: biochemical
[1] = tested on: SARS-CoV-2 UC-1074 strain; test: SARS-CoV-2 antiviral assay in Vero cells, strain UC-1074; type: cell-based; details: over two different SARS-CoV-2 strains as worded
cytomegalovirus = test: Antiviral activity over Vero cells infected with CMV; type: cell-based; details: data not shown
varicella zoster virus = test: Antiviral activity over Vero cells infected with VZV; type: cell-based; details: data not shown
[2] = tested on: SARS-CoV-2 UC-1075 strain; test: SARS-CoV-2 antiviral assay in Vero cells, strain UC-1075; type: cell-based; details: Severe acute respiratory syndrome coronavirus 2, UC1075, Vero, 120 h, read-out: Antiviral activity EC50 UC-1075 #1 strain Vero cells

For `C#CC[C@H](NCc1ccc(-c2ccccc2)cc1)C(=O)N[C@@H](Cc1c[nH]c2ccccc12)C(=O)NC(C)(C)C` [Compound 24, (S)-2-(([1,1′-biphenyl]-4-ylmethyl)amino)-N-((S)-1-(tert-butylamino)-3-(1H-indol-3-yl)-1-oxopropan-2-yl)pent-4-ynamide], the IC50 (SARS-CoV-2 PL^pro) was > 25 µM.

`C=CC[C@H](NC(=O)CCl)C(=O)N[C@@H](Cc1c[nH]c2ccccc12)C(=O)NCc1ccccc1` [Compound 29, (S)–N-((S)-1-(benzylamino)-3-(1H-indol-3-yl)-1-oxopropan-2-yl)-2-(2-chloroacetamido)pent-4-enamide] (ClAc-[AllylGly]-Trp-NHBn) was tested, and the “Cellular antiviral potency relative to compound 27 (fold higher)” value [1] was 28 fold, the “Antiviral effect over cytomegalovirus” value (cytomegalovirus) was “no effects” and the “Antiviral effect over varicella zoster virus” value (varicella zoster virus) was “no effects”.

With `CC(C)(C)NC(=O)[C@H](Cc1c[nH]c2ccccc12)NC(=O)[C@@H]1CCCN1C(=O)OC(C)(C)C` [Compound 7, tert-butyl 2-((1-(tert-butylamino)-3-(1H-indol-3-yl)-1-oxopropan-2-yl)carbamoyl)pyrrolidine-1-carboxylate] (Boc-Pro-Trp-NHtBu) the IC50 (SARS-CoV-2 PL^pro) was > 25 µM.

With `CC(C)(C)NC(=O)[C@H](Cc1c[nH]c2ccccc12)NC(=O)[C@H](Cc1ccccc1)NCc1ccc(-c2ccccc2)cc1` [Compound 22, (S)-2-(([1,1′-biphenyl]-4-ylmethyl)amino)-N-((S)-1-(tert-butylamino)-3-(1H-indol-3-yl)-1-oxopropan-2-yl)-3-phenylpropanamide] the IC50 (SARS-CoV-2 PL^pro) was > 25 µM.

`C#CC[C@H](NCc1ccccc1)C(=O)N[C@@H](Cc1c[nH]c2ccccc12)C(=O)NCc1ccc(-c2ccccc2)cc1` [Compound 27, (S)–N-((S)-1-(([1,1′-biphenyl]-4-ylmethyl)amino)-3-(1H-indol-3-yl)-1-oxopropan-2-yl)-2-(benzylamino)pent-4-ynamide] was tested, and the IC50 (SARS-CoV-2 PL^pro) was > 25 µM, the “Antiviral effect over cytomegalovirus” value (cytomegalovirus) was “no effects” and the “Antiviral effect over varicella zoster virus” value (varicella zoster virus) was “no effects”.

With `C#CC[C@H](NC(=O)OC(C)(C)C)C(=O)N(Cc1ccccc1)Cc1cn(C)c2ccc(C(=O)OC)cc12` [Compound 35, (S)-Methyl 3-((N-benzyl-2-((tert-butoxycarbonyl)amino)pent-4-ynamido)methyl)-1-methyl-1H-indole-5-carboxylate] the IC50 (SARS-CoV-2 PL^pro) was > 25 µM.

`C#CC[C@H](NCCC)C(=O)N[C@@H](Cc1c[nH]c2ccccc12)C(=O)NCc1ccc(-c2ccccc2)cc1` [Compound 28, (S)–N-((S)-1-(([1,1′-biphenyl]-4-ylmethyl)amino)-3-(1H-indol-3-yl)-1-oxopropan-2-yl)-2-(propylamino)pent-4-ynamide] was tested, and the IC50 (SARS-CoV-2 PL^pro) was > 25 µM.

With `CC(C)C[C@H](NCc1ccc(-c2ccccc2)cc1)C(=O)N[C@@H](Cc1c[nH]c2ccccc12)C(=O)NC(C)(C)C` [Compound 23, 2-(([1,1′-biphenyl]-4-ylmethyl)amino)-N-(1-(tert-butylamino)-3-(1H-indol-3-yl)-1-oxopropan-2-yl)-4-methylpentanamide] the IC50 (SARS-CoV-2 PL^pro) was > 25 µM.

With `CC(C)C[C@H](NCc1ccc(-c2ccccc2)cc1)C(=O)N[C@@H](Cc1c[nH]c2ccccc12)C(=O)NCc1ccccc1` [Compound 25, (S)-2-(([1,1′-biphenyl]-4-ylmethyl)amino)-N-((S)-1-(benzylamino)-3-(1H-indol-3-yl)-1-oxopropan-2-yl)-4-methylpentanamide] the IC50 (SARS-CoV-2 PL^pro) was > 25 µM and the EC50 [2] was > 20 µM.

`C=CC[C@H](NCc1ccccc1)C(=O)N[C@@H](Cc1c[nH]c2ccccc12)C(=O)NCc1ccc(-c2ccccc2)cc1` [Compound 26, (S)–N-((S)-1-(([1,1′-biphenyl]-4-ylmethyl)amino)-3-(1H-indol-3-yl)-1-oxopropan-2-yl)-2-(benzylamino)pent-4-enamide] was tested, and the IC50 (SARS-CoV-2 PL^pro) was > 25 µM.
